Results as given in patent US20140213538A1, “LYSOPHOSPHATIDIC ACID RECEPTOR ANTAGONISTS” (InterMune, Inc., priority 2013, published 2014).

How the values were obtained:
Assay type in all cases: cell-based
[1] = biological target: T1, LPA/S1P GPCR of interest (Homo sapiens, UniProt Q92633); assay: Beta-Arrestin based assay (PathHunter)
T1 construct: host or cells: CHO
How it was run: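 EA Parental CHO cells (DiscoverX) were transfected with FuGENE (Roche) using CMV promoter-driven DNA constructs encoding the LPA/S1P GPCR of interest fused to a ProLink tag. Beta-arrestin recruitment in agonist mode was assessed 24-48 hrs later with PathHunter kits. Tests ran in quadruplicate in white 384 well plates, and end point luminescence was fit to a 4 parameter logistic function.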

[2] = biological target: T2, LPA1 (Homo sapiens, UniProt Q92633); assay: Ca Flux LPA1 assay; design: the full-length cDNA for human LPA1 is obtained by PCR of the reverse transcription reaction; expressed in transfected cells
T2 sequence (Q92633 whole entry): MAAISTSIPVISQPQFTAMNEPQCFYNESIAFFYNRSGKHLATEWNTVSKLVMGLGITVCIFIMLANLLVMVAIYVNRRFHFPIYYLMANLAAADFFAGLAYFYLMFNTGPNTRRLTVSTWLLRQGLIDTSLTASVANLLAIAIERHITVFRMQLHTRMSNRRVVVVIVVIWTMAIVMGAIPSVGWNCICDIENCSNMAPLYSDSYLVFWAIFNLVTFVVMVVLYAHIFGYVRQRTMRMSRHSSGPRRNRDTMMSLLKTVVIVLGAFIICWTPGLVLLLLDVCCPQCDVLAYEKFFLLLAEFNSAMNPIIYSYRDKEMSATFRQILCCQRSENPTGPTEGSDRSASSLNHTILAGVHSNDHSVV

[3] = biological target: T2, LPA1; assay: LPA1 Migration Assay (Oris); design: host or cells: primary fibroblasts (lung, dermal), HFL-1, 3T3 and CHO cells expressing LPA1R; conditions: read-out: Cell Migration EC50
How it was run: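 Antagonist inhibition was derived by 4-parameter logistic fitting of migrated-cell counts against compound concentration. Dye-loaded, 12-24 h serum-starved fibroblasts, HFL-1, 3T3 or CHO cells expressing LPA1R moved into an Oris detection zone in response to LPA or serum, then were fixed and counted on a high-content reader.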

T1 sequence (Q92633 whole entry): as above

| SMILES | EC50 [1] | IC50 [2] | EC50 [3] |
| --- | --- | --- | --- |
| CCn1ncc(-c2ccc(-c3cc(F)c(Oc4ncccc4C(=O)O)c(F)c3)cc2)c1NC(=O)O[C@H](C)c1ccccc1 [IT489] | < 0.05 µM | 0.05 to 0.5 µM | < 0.05 µM |
| C[C@@H](OC(=O)Nc1ccncc1C#Cc1cc2sc(C3(C(=O)O)CC3)cc2s1)c1ccccc1 [IT106] | 0.05 to 0.5 µM | < 0.05 µM | > 0.5 µM |
| Cc1noc(-c2ccc(-c3cc(F)c(Oc4ccccc4C(=O)O)c(F)c3)cc2)c1NC(=O)O[C@H](C)c1ccccc1 [IT316] | < 0.05 µM | 0.05 to 0.5 µM | < 0.05 µM |
| Cc1noc(-c2ccc(-c3ccc(OC4(C(=O)O)CCC4)cc3)cc2)c1NC(=O)O[C@H](C)c1ccccc1 [IT196] | < 0.05 µM | < 0.05 µM | 0.05 to 0.5 µM |
| Cc1noc(-c2ccc(-c3ccc(Oc4ncccc4C(=O)O)cc3)cc2)c1NC(=O)O[C@H](C)c1ccccc1 [IT199] | < 0.05 µM | < 0.05 µM | < 0.05 µM |
| C[C@@H](OC(=O)Nc1c(-c2ccc(-c3ccc(Oc4ccccc4C(=O)O)cc3)cc2)oc2ccccc12)c1ccccc1 (single isomer, unassigned) [IT495] | < 0.05 µM | > 0.5 µM | 0.05 to 0.5 µM |
| C[C@@H](OC(=O)Nc1c(-c2cc3sc(C#CC4(C(=O)O)CC4)cc3s2)cnn1C)c1ccccc1 [IT126] | < 0.05 µM | < 0.05 µM | 0.05 to 0.5 µM |
| C[C@@H](OC(=O)Nc1c(-c2ccc(-c3ccc(C4(C(=O)O)CC4)cc3)cc2)oc2ccccc12)c1ccccc1 [IT496] | < 0.05 µM | > 0.5 µM | < 0.05 µM |
| Cc1noc(-c2ccc(-c3ccc(C4(C(=O)O)CC(F)(F)C4)cc3)cc2)c1NC(=O)O[C@H](C)c1ccccc1 [IT136] | < 0.05 µM | 0.05 to 0.5 µM | 0.05 to 0.5 µM |
| Cc1noc(-c2ccc(-c3nc4sc(C5(C(=O)O)CC5)cc4s3)cc2)c1NC(=O)O[C@H](C)c1ccccc1 [IT111] | < 0.05 µM | 0.05 to 0.5 µM | 0.05 to 0.5 µM |
| C[C@@H](OC(=O)Nc1c(C#Cc2cc(F)c(Oc3ncccc3C(=O)O)c(F)c2)cnn1C)c1ccccc1 [IT303] | 0.05 to 0.5 µM | < 0.05 µM | 0.05 to 0.5 µM |
| Cc1noc(-c2cc(F)c(-c3ccc(Oc4ccccc4C(=O)O)cc3)cc2F)c1NC(=O)O[C@H](C)c1ccccc1 [IT315] | < 0.05 µM | < 0.05 µM | < 0.05 µM |
| Cc1noc(-c2ccc(-c3ccc(Oc4ccncc4C(=O)O)cc3)cc2)c1NC(=O)O[C@H](C)c1ccccc1 [IT227] | < 0.05 µM | < 0.05 µM | < 0.05 µM |
| Cc1noc(-c2ccc(-c3ccc(OC(F)(F)C(=O)O)cc3)cc2)c1NC(=O)O[C@H](C)c1ccccc1 [IT228] | < 0.05 µM | 0.05 to 0.5 µM | 0.05 to 0.5 µM |
| C[C@@H](OC(=O)Nc1c(-c2cc(Cl)c(-c3cc4sc(C5(C(=O)O)CC5)cc4s3)cc2F)cnn1C)c1ccccc1 [IT282] | < 0.05 µM | 0.05 to 0.5 µM | < 0.05 µM |
| C[C@@H](OC(=O)Nc1ocnc1C#Cc1cc2sc(C3(C(=O)O)CC3)cc2s1)c1ccccc1 [IT125] | > 0.5 µM | < 0.05 µM | 0.05 to 0.5 µM |
| Cc1noc(-c2ccc(-c3cc(F)c(Oc4ccccc4C(=O)O)c(F)c3)cc2)c1NC(=O)O[C@H](C)c1ccccc1Cl [IT449] | < 0.05 µM | > 0.5 µM | < 0.05 µM |
| Cc1noc(-c2ccc(-c3ccc(Oc4c(C(=O)O)n[nH]c4C)cc3)cc2)c1NC(=O)O[C@H](C)c1ccccc1 [IT485] | < 0.05 µM | 0.05 to 0.5 µM | < 0.05 µM |
| Cc1noc(-c2ccc(-c3cc(F)c(Oc4ncccc4C(=O)O)c(F)c3)cc2)c1NC(=O)O[C@H](C)c1ccccc1 [IT258] | < 0.05 µM | < 0.05 µM | < 0.05 µM |
| Cc1onc(-c2cc(F)c(-c3cc4sc(C5(C(=O)O)CC5)cc4s3)cc2F)c1NC(=O)O[C@H](C)c1ccccc1 [IT255] | < 0.05 µM | 0.05 to 0.5 µM | 0.05 to 0.5 µM |

| SMILES | EC50 [1] | IC50 [2] | EC50 [3] |
| --- | --- | --- | --- |
| Cc1nsc(-c2cc3sc(-c4ccc(C5(C(=O)O)CC5)cc4)cc3s2)c1NC(=O)O[C@H](C)c1ccccc1 [IT120] | < 0.05 µM | > 0.5 µM | 0.05 to 0.5 µM |
| Cc1noc(-c2ccc(-c3ccc(Oc4c(F)cccc4C(=O)O)cc3)cc2)c1NC(=O)O[C@H](C)c1ccccc1 [IT375] | < 0.05 µM | 0.05 to 0.5 µM | 0.05 to 0.5 µM |
| C[C@@H](OC(=O)Nc1c(-c2ccc(-c3cc(F)c(Oc4cccnc4C(=O)O)c(F)c3)cc2)nnn1C)c1ccccc1 [IT452] | < 0.05 µM | < 0.05 µM | < 0.05 µM |
| Cc1noc(-c2ccc(-c3cc(F)c(Oc4cccnc4C(=O)O)c(F)c3)cc2)c1NC(=O)O[C@H](C)c1ccccc1 [IT435] | < 0.05 µM | < 0.05 µM | < 0.05 µM |
| C[C@@H](OC(=O)Nc1c(-c2ccc(-c3ccc(Oc4ccccc4C(=O)O)c(F)c3)cc2)nnn1C)c1ccccc1 [IT447] | < 0.05 µM | < 0.05 µM | < 0.05 µM |
| Cc1noc(-c2ccc(-c3ccc(OC(C)(C)C(=O)O)cc3)cc2)c1NC(=O)O[C@H](C)c1ccccc1 [IT226] | < 0.05 µM | < 0.05 µM | < 0.05 µM |
| C[C@@H](OC(=O)Nc1c(-c2ccc(-c3cc(F)c(Oc4ncccc4C(=O)O)c(F)c3)cc2)cnn1C)c1ccccc1 [IT308] | < 0.05 µM | 0.05 to 0.5 µM | < 0.05 µM |
| C[C@@H](OC(=O)Nc1c(-c2ccc(-c3cc(F)c(Oc4ccncc4C(=O)O)c(F)c3)cc2)cnn1C)c1ccccc1 [IT438] | < 0.05 µM | 0.05 to 0.5 µM | 0.05 to 0.5 µM |
| Cc1nnn(-c2ccc(-c3cc(F)c(Oc4ccccc4C(=O)O)c(F)c3)cc2)c1NC(=O)O[C@H](C)c1ccccc1 [IT408] | < 0.05 µM | < 0.05 µM | < 0.05 µM |
| Cn1ncc(C#Cc2cc3sc(C4(C(=O)O)CC4)cc3s2)c1NC(=O)O[C@@H](c1ccccc1)C(F)(F)F [IT114] | < 0.05 µM | 0.05 to 0.5 µM | < 0.05 µM |
| C[C@@H](OC(=O)Nc1c(-c2ccc(-c3ccc(C4(C(=O)O)CCOCC4)cc3)cc2)cnn1C)c1ccccc1 [IT027] | 0.05 to 0.5 µM | 0.05 to 0.5 µM | > 0.5 µM |
| C[C@@H](OC(=O)Nc1c(-c2ccc(-c3cc(F)c(Oc4ncccc4C(=O)O)c(F)c3)cc2)nnn1C)c1ccccc1 [IT306] | < 0.05 µM | < 0.05 µM | < 0.05 µM |
| C[C@@H](OC(=O)Nc1c(-c2ccc(-c3cc(F)c(Oc4ccncc4C(=O)O)c(F)c3)cc2)nnn1C)c1ccccc1 [IT453] | < 0.05 µM | 0.05 to 0.5 µM | < 0.05 µM |
| Cc1noc(-c2ccc(NC(=O)c3coc(C4(C(=O)O)CC4)c3)cc2)c1NC(=O)O[C@H](C)c1ccccc1 [IT224] | < 0.05 µM | < 0.05 µM | < 0.05 µM |
| C[C@@H](OC(=O)Nc1c(-c2ccc(-c3ccc(C4(C(=O)O)CC4)s3)cc2)nnn1C)c1ccccc1 [IT236] | < 0.05 µM | < 0.05 µM | 0.05 to 0.5 µM |
| C[C@@H](OC(=O)Nc1c(-c2ccc(-c3cc(F)c(Oc4cccnc4C(=O)O)c(F)c3)cc2)cnn1C)c1ccccc1 [IT436] | < 0.05 µM | < 0.05 µM | 0.05 to 0.5 µM |
| Cc1noc(-c2ccc(-c3ccc(OC4(C(=O)O)CC4)cc3)cc2)c1NC(=O)O[C@H](C)c1ccccc1 [IT197] | < 0.05 µM | < 0.05 µM | < 0.05 µM |
| Cc1noc(-c2ccc(-c3ccc(Oc4ccccc4C(=O)O)cc3)cc2)c1NC(=O)O[C@H](C)c1ccccc1 [IT155] | < 0.05 µM | 0.05 to 0.5 µM | < 0.05 µM |
| C[C@@H](OC(=O)Nc1c(-c2ccc(-c3ccc(Oc4ccccc4C(=O)O)cc3)cc2)nnn1C)c1ccccc1 [IT309] | < 0.05 µM | < 0.05 µM | < 0.05 µM |
